Source: US11647748B2, “Sulphonamides as methionine metabolic pathway inhibitors” (MIGAL-GALILEE RESEARCH INSTITUTE LTD., priority 2018, dated 2023)

Key:
BY2 Tobacco cells = assay: BY-2 viability assay (PrestoBlue); type: cell-based; settings: viability relative to DMSO-treated cells, 25 μM, 48 hours; for Tobacco cells BY-2 results/DMSO: Table 5; for Tobacco cells BY-2 (all (relative to DMSO)): Table 3
Experimental: Reference is now made to FIG. 5 showing the BY-2 viability assay. In this assay, the viability of BY2 Tobacco cells was tested following treatment with the compounds of the present invention. For this purpose, cells were cultured in Murashige and Skoog basal medium (Sigma-Aldrich, Cat #M0404), supplemented with 2,4-dichloro-phenoxyacetic acid (0.2 mg/L), and sucrose (3%), and incubated in the dark, at 25° C. and then sub-cultured at a 1:15 dilution in fresh media every 7 days.
Before treatment, the cell suspension was adjusted to OD=0.4 (at 600 nm) and seeded in 6 well plates with a volume of 3 ml […]. The exemplified compounds were then added to the wells, at a final concentration of 25 μM (0.05% DMSO), and incubated for 48 hours. Cellular viability was measured using the commercially available PrestoBlue™ assay (ThermoFisher Scientific, PrestoBlue™ Cell Viability Reagent Cat #A13261). The PrestoBlue™ reagent is a cell-permeant non-fluorescent compound, which is reduced by metabolically active cells and providing a quantitative fluorescent signal. In the assay, 10 μL of the PrestoBlue™ reagent was added to 90 μL of the treated cells and fluorescence measurements were performed done with excitation/emission wavelengths of 560/590 nm in Tecan M200 plate reader.
Tables 1-3 and also the following Table 5 show the results of the BY-2 viability assay described above.

Roquette = Roquette assay spray; type: in vivo
Arabidopsis thaliana = assay: Arabidopsis root length (root growth inhibition); type: in vivo; settings: 50 μM compound; for Arabidopsis (relative to DMSO): root length ratio vs DMSO control, lower = shorter root; for Arabidopsis root length: ratio vs DMSO control, Table 4
Experimental: Finally, FIGS. 7a-7h are the photos of the Arabidopsis thaliana plants and the inhibition of their roots growth by the compounds of the present invention. These experiments were conducted as follows. Seeds were washed with 70% ethanol for one minute and then with sterile water. Sterilisation was performed with 50% bleaching solution (3%) and 0.2% Triton x-100 for ten minutes followed by a five-time wash with sterile water. The seeds were placed in six well-plates with half Murashige and Skoog medium (MS; Duchefa, Haarlem, Netherlands), containing 1% sucrose (w/v), pH 5.8. The plates with Arabidopsis thaliana seeds were placed at 4° C. for two days and then transferred for seven days to growth chamber (22±2° C.) at day/light cycles of 16/8 h. The plates were placed vertically. In each plate, a control including 0.1% DMSO in the medium was added. The compounds of the present invention were tested for their herbicidal efficiency by diluting 1000 times a 50 mM stock in DMSO leading to a final concentration of 50 μM with 0.1% DMSO.
In Tables 1 and 2 above, Arabidopsis root length was measured after addition of 50-μM compound compared with the negative control (DMSO) treatment. Length values indicate the ratio between non-treated plates ([…]) and the length after the addition of 50 μM of each compound. Lower values indicate shorter root length, and consequently, larger effect.

Tobacco CGS [1] = target: T1, Tobacco CGS (Nicotiana tabacum, UniProt Q9ZPL5); assay: TEV experiment (relative to DMSO); type: biochemical; design: 6xHIS (N, cleaved yes); GB1 solubility tag (N, cleaved yes); made in house; host or cells: E. coli BL-21
T1 sequence (Q9ZPL5 79-540): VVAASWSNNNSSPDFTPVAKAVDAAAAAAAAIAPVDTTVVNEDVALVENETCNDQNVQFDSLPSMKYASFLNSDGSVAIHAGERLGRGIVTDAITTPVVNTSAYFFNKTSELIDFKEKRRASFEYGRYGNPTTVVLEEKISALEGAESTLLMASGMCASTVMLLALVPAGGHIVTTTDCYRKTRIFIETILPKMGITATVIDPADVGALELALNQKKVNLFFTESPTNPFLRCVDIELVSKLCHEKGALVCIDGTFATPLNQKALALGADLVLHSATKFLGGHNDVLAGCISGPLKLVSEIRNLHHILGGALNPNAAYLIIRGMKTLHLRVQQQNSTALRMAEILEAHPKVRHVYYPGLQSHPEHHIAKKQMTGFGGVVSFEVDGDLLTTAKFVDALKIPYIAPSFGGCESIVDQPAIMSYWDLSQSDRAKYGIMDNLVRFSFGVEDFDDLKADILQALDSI
Experimental: As discussed above, the first reaction in methionine biosynthesis in plants is catalyzed by the CGS enzyme. In this reaction, the formation of cystathionine is conducted by the γ-replacement of the phosphoryl substituent of O-phospho-homoserine by cysteine and consecutive release of an orthophosphate group.
Expression of recombinant CGS was done by transforming the pET-11 vector containing the DNA sequence of Tobacco CGS with a 6×HIS tag and GB1 solubility tag followed by TEV cleavage site into BL-21 cells. These cells were cultured at 37° C. and optical density (OD)=0.8 protein at 600 nm, and the expression was induced by addition of 1 mM IPTG for 16 hours at 25° C. The protein was purified to homogeneity onto nickel column and cleaved by o/n dialysis with the TEV protease. A second nickel column was used to separate the cleaved CGS from the TEV and GB1 solubility tag.
The direct activity of CGS was tested using the Malachite Green Phosphate Assay Kit (Sigma-Aldrich, cat #MAK307-1KT). It is a highly sensitive and robust experiment used to measure the release of free orthophosphate group based on quantification of the green-coloured complex formed between Malachite Green, molybdate, and free orthophosphate. The rapid colour formation from the reaction can be conveniently measured on a spectrophotometer via the absorbance at 620 nm.
The assay mixture (100 μl) contained 50 mM MOPS-NaOH (pH 7.5), 150 mM NaCl, 0.1 mM PLP and 1 μM purified CGS. The compounds of the present invention were added at a final concentration of 50 μM and reactions were initiated by adding 2 mM cysteine and 3 mM 0-phospho-L-homo-serine. After two-hour incubation at 25° C., 80 μL of each sample were transferred into a new 96 well-plate containing 20 μl of Malachite Green Reagent and incubated for additional 30 min at 25° C. Colour development was measured by a plate reader Tecan M200 (620 nm).

[2] = system: E. coli cells lacking the endogenic MetB CGS gene and transformed to express the CGS from Arabidopsis; assay: E. coli specificity (MOA): growth of E. coli expressing Arabidopsis CGS with and without methionine; type: cell-based; settings: score
Experimental: In addition to the direct binding evaluation, specific assay to test the compounds activity and specificity were also developed. In this assay, E. coli cells, lacking the endogenic MetB CGS gene and transformed to express the CGS from Arabidopsis, were used. These cells were grown on M9 minimal media with and without external methionine supplemented to the cells, in the presence of the compounds of the embodiments. These selected compounds of the embodiments, capable of inhibiting the cell growth on M9, but incapable of affecting the cell growth when supplemented with methionine, were validated as methionine-pathway specific inhibitors.
In this assay, Methionine auxotroph E. coli mutant was transformed with PQE-30 vector containing the Arabidopsis CGS gene as previously described in Yael Hacham et al., Plant Physiol., February 2002, 128(2): 454-462. In order to test the effect of the small molecule inhibitors on the CGS and methionine pathway, growth curves of the E. coli in M9 minimal media with 100 μM IPTG were measured with and without the addition of external methionine (40 mg/L) in the presence of variable compound concentrations. E. coli growth curves were measured by following the optical density at 600 nm of bacteria in 96 well-plate placed within Tecan M200 plate reader in orbital shaking mode at 37° C. The slope of each curve was estimated using the ‘finest’ function in Excel.

Tobacco CGS [3] = target: T1, Tobacco CGS; assay: Micro Scale Thermophoresis (MST) direct binding to CGS; design: 6xHIS (N, cleaved yes); GB1 solubility tag (N, cleaved yes); made in house; host or cells: E. coli BL21; settings: score on scale 0-5; Table 3
Experimental: The direct binding of the compounds of the embodiments to the CGS was tested by Micro Scale Thermophoresis (MST). In the MST assay, the CGS protein was labelled with a fluorophore, the samples were heated, and changes in fluorescence were measured as a function of the ligand concentration. In the MST assay, similar to the expression and purification described above, the recombinant Tobacco CGS protein was expressed in E. coli BL21 cells and purified to homogeneity. For that particular purpose, the pET-11 vector containing the DNA sequence of Tobacco CGS with an N-terminus 6×HIS tag followed by a TEV-cleavable GB1 solubility tag was cloned and transformed into the bacteria cells. Cells were cultured to OD=0.8, and protein expression was induced by the addition of 1 mM IPTG. The cells were cultured for additional 16 hours temperature 25° C.
Following cellular lysis, the soluble fraction was passed through the nickel column and the bound HIS-tagged protein was eluted by 300 mM imidazole. […]
Thus, the MST assay was performed to measure the biding of the compounds to the CGS protein. […] The MST binding curves were then measured using the Monolith NT.115 apparatus by incubating the labelled protein with the indicated compounds in a dose-response manner.

COc1cccc2c1CC(C(=O)O)N2S(=O)(=O)/C=C/c1ccccc1Cl (stereo not shown)
Tobacco cells BY-2 (relative DMSO) (BY2 Tobacco cells; Table 1): 17
Roquette assay spray (twice average) (Roquette; Table 1): 2.0
Arabidopsis (relative to DMSO) (Arabidopsis thaliana; Table 1): 0.24

Cc1nc(-c2cccc(S(=O)(=O)Nc3cccc(C(=O)O)c3)c2)cs1 [IML-198]
TEV-relative to DMSO (Tobacco CGS [1]; Table 6): 0.71
Arabidopsis root length (Arabidopsis thaliana): 0.31

COc1cccc(S(=O)(=O)Nc2cccc(-c3cn(Cc4ccccc4)nn3)c2)c1 [IML-226]
Tobacco cells BY-2 results/DMSO (BY2 Tobacco cells): 60

O=C(O)C1CN(S(=O)(=O)/C=C/c2ccc(Cl)cc2)c2ccccc21 (stereo not shown)
Tobacco cells BY-2 (relative DMSO) (BY2 Tobacco cells; Table 1): 21
TEV (relative to DMSO) (Tobacco CGS [1]; Table 1): 0.39
Roquette assay spray (twice average) (Roquette; Table 1): 3.0
Arabidopsis (relative to DMSO) (Arabidopsis thaliana; Table 1): 0.04

O=C(O)CC1CN(S(=O)(=O)/C=C/c2ccccc2)c2ccccc21 (stereo not shown)
Tobacco cells BY-2 (relative DMSO) (BY2 Tobacco cells; Table 1): 21
TEV (relative to DMSO) (Tobacco CGS [1]; Table 1): 0.25
Roquette assay spray (twice average) (Roquette; Table 1): 2.5
Arabidopsis (relative to DMSO) (Arabidopsis thaliana; Table 1): 0.08
E. coli specificity (MOA) ([2]; Table 1): 5

COc1cccc2c1[C@@H](C(=O)O)CN2S(=O)(=O)/C=C/c1cccc(Cl)c1
Tobacco cells BY-2 (relative DMSO) (BY2 Tobacco cells; Table 1): 7
TEV (relative to DMSO) (Tobacco CGS [1]; Table 1): 0.22
Arabidopsis (relative to DMSO) (Arabidopsis thaliana; Table 1): 0.01

Cc1ccccc1CS(=O)(=O)Nc1ccc2nncn2c1
Tobacco cells BY-2 (all (relative to DMSO)) (BY2 Tobacco cells): 0
E. coli specificity (MOA) ([2]; Table 3): 5

O=C(O)C1Cc2ccccc2N1S(=O)(=O)c1ccc2ccccc2c1 (stereo not shown)
Tobacco cells BY-2 (relative DMSO) (BY2 Tobacco cells; Table 2): 30
TEV (relative to DMSO) (Tobacco CGS [1]; Table 2): 0.09
Roquette assay spray (twice average) (Roquette; Table 2): 2.5
Arabidopsis (relative to DMSO) (Arabidopsis thaliana; Table 2): 0.20

Cc1nc(-c2ccc(C)c(S(=O)(=O)Nc3cccc(C(=O)O)c3)c2)cs1 [IML-193]
Arabidopsis root length (Arabidopsis thaliana): 0.50

CCc1nc(-c2cccc(NS(=O)(=O)c3cccc(OC)c3)c2)no1 [IML-227]
Tobacco cells BY-2 results/DMSO (BY2 Tobacco cells): 33
Arabidopsis root length (Arabidopsis thaliana): 0.36

O=C(O)C1Cc2ccccc2N1S(=O)(=O)C1Cc2ccccc2C1 (stereo not shown)
TEV (relative to DMSO) (Tobacco CGS [1]; Table 2): 0.13

O=S(=O)(Cc1ccccc1F)Nc1ccc2nncn2c1
MST Tobacco (0-5) (Tobacco CGS [3]): 5
Tobacco cells BY-2 (all (relative to DMSO)) (BY2 Tobacco cells): 0

O=C(O)CC1CN(S(=O)(=O)/C=C/c2ccc(Cl)cc2)c2ccccc21 (stereo not shown)
Tobacco cells BY-2 (relative DMSO) (BY2 Tobacco cells; Table 1): 12
Roquette assay spray (twice average) (Roquette; Table 1): 3.0
Arabidopsis (relative to DMSO) (Arabidopsis thaliana; Table 1): 0.04
E. coli specificity (MOA) ([2]; Table 1): 2

O=C(O)C1Cc2ccccc2CN1S(=O)(=O)/C=C/c1ccccc1 (stereo not shown)
Tobacco cells BY-2 (relative DMSO) (BY2 Tobacco cells; Table 1): 46
Arabidopsis (relative to DMSO) (Arabidopsis thaliana; Table 1): 0.20
E. coli specificity (MOA) ([2]; Table 1): 4
